The values that follow come from BindingDB's records for doi:10.7270/Q2TX3CTT (Broad Institute, 2010).

Usually EC50 stands for the midpoint of the concentration-response curve. A high value points to lower potency in that assay.

A value given as a limit tells only on which side of the number the result lay.

The assay deals with Glycogen synthase kinase-3 beta (Homo sapiens, UniProt P49841). Kind of assay: concentration-response blocking of human GSK3B – biochemical, luminescence, cell-free homogeneous, retest, dose response (AID 434954).
Sequence of Glycogen synthase kinase-3 beta (P49841 whole entry): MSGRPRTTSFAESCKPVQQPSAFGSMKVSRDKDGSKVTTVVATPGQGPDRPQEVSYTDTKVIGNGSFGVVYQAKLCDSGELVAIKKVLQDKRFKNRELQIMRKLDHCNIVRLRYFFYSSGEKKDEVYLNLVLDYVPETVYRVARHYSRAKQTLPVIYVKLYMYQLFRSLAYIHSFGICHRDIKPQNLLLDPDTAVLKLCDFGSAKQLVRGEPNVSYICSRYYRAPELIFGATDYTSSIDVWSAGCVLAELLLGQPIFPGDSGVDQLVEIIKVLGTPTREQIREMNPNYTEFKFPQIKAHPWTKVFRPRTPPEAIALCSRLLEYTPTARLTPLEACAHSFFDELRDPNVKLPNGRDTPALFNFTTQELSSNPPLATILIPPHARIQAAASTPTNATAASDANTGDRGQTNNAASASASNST
For `CC1=C(C(=O)Nc2ccccc2F)C(c2cccs2)C2C(=O)CCCC2=N1` (stereo not drawn), the EC50 was greater than 300 µM.

Regarding `Cc1ccc(S(=O)(=O)CC(=O)Nc2ncc([N+](=O)[O-])s2)cc1` [2-(4-methylphenyl)sulfonyl-N-(5-nitro-1,3-thiazol-2-yl)acetamide], the EC50 is greater than 300 µM.

In turn, `Cc1cc(N2CCC(C)CC2)nc(-c2ccccc2O)n1` [(6E)-6-[6-methyl-4-(4-methyl-1-piperidinyl)-1H-pyrimidin-2-ylidene]-1-cyclohexa-2,4-dienone] displayed an EC50 greater than 300 µM.

With `COc1ccc(C2CC(=O)N3CN(c4ccc(C)c(Cl)c4)CSC3=C2C#N)cc1` (stereo not drawn), the EC50 is greater than 300 µM.

Molecule `COc1ccc(OC)c(Nc2nc(NCCC(C)C)nc(N)c2[N+](=O)[O-])c1` [4-N-(2,5-dimethoxyphenyl)-2-N-(3-methylbutyl)-5-nitropyrimidine-2,4,6-triamine] had an EC50 greater than 300 µM.

In the case of `Cn1c(=O)c2[nH]c(CN3CCN(Cc4ccccc4)CC3)nc2n(C)c1=O` [SMR000120891], the EC50 was greater than 300 µM.

Take `Nc1nonc1-n1nnc(C(=O)NN=Cc2ccccc2)c1CN1CCc2ccccc21` [1-(4-amino-1,2,5-oxadiazol-3-yl)-5-(2,3-dihydroindol-1-ylmethyl)-N-[(phenylmethylene)amino]-4-triazolecarboxamide]: it took 3.62 µM to reach a half-maximal effect (EC50).

Turning to `CCOC(=O)c1nnn(-c2nonc2N)c1-c1ccc(OC)cc1` [1-(4-amino-1,2,5-oxadiazol-3-yl)-5-(4-methoxyphenyl)-4-triazolecarboxylic acid ethyl ester], it took 14.4 µM to reach a half-maximal effect (EC50).

`O=C(C[n+]1ccc(C=Cc2ccccc2)cc1)c1ccc2c(c1)OCCO2` came in with an EC50 of 125 µM.

`O=[N+]([O-])c1ccccc1S(=O)(=O)N1CCc2ccccc2C1` [SMR000273931] yielded an EC50 greater than 300 µM.

Molecule `CC(=O)N1CCc2c(sc(NC(=O)C3COc4ccccc4O3)c2C(N)=O)C1` (stereo not drawn) [2-(2,3-dihydro-1,4-benzodioxin-3-ylcarbonylamino)-6-ethanoyl-5,7-dihydro-4H-thieno[2,3-c]pyridine-3-carboxamide] showed an EC50 of 8.32 µM. This counts as single-digit micromolar.

In turn, `COc1ccc2nc(Cl)cc(Cl)c2c1` [SMR000430028] yielded a concentration giving a half-maximal response (EC50) greater than 300 µM.

The molecule `O=C(CSc1nnc(CNC(=O)c2c(F)cccc2F)o1)NCc1ccc(F)cc1` displayed a 50% effective concentration (EC50) greater than 300 µM.

Turning to `Cc1ccc(C(=O)ON=C(N)c2ccccn2)c(C)c1`, the EC50 was 14.9 µM.

`CC(=O)Oc1ccc2occ(C(=O)c3cccs3)c2c1` [SMR000106284] showed an EC50 greater than 300 µM.

In the case of `Cc1cc(NC(=O)CSc2ccc3nnc(-c4ccc(F)cc4)n3n2)no1` [2-{[3-(4-fluorophenyl)[1,2,4]triazolo[4,3-b]pyridazin-6-yl]thio}-N-(5-methylisoxazol-3-yl)acetamide], the EC50 was greater than 300 µM.

In turn, `N#Cc1c(O)nc(SCC(=O)Nc2nnc(C(F)(F)F)s2)nc1-c1ccccc1` [2-[(5-cyano-4-oxo-6-phenyl-1H-pyrimidin-2-yl)sulfanyl]-N-[5-(trifluoromethyl)-1,3,4-thiadiazol-2-yl]acetamide] had an EC50 greater than 300 µM.

With `O=C(c1ccc(Br)cc1)c1coc2ccc(O)cc12` [MLS001178337], a half-maximal effect (EC50) was put at 15.4 µM. In other words, the double-digit micromolar range.

`COC(=O)c1sccc1NC(=O)c1ccc(Br)s1` [3-[(5-bromothiophene-2-carbonyl)amino]thiophene-2-carboxylic acid methyl ester] yielded an EC50 greater than 300 µM.

In turn, `O=C(Nc1cccc(F)c1)Nc1ccccn1` [MLS000111709] returned an EC50 greater than 300 µM.

In turn, `CC(C)CCSc1nnc(N)s1` [MLS000861787] yielded an EC50 greater than 300 µM.

`CC(=O)Nc1ccc(Cc2nc3c([nH]2)c(=O)n(C)c(=O)n3C)cc1` [SMR000528148] displayed an EC50 greater than 300 µM.

`C=C1C(c2ccc(OC)cc2)=[N+](O)C(C)=C(C)N1[O-]` returned a concentration giving a half-maximal response (EC50) greater than 300 µM.

In the case of `Cc1cccc(CSc2ccc3nnc(-c4cccs4)n3n2)c1` [SMR000236998], the EC50 is greater than 300 µM.

Consider `CC(C)(C)NC(=O)NC(=O)CSc1nncs1` [N-[(tert-butylamino)-oxomethyl]-2-(1,3,4-thiadiazol-2-ylthio)acetamide], for which the EC50 was greater than 300 µM.

`N#CCCn1cc(CN=O)c(-c2cccc([N+](=O)[O-])c2)n1` [3-[4-(hydroxyiminomethyl)-3-(3-nitrophenyl)pyrazol-1-yl]propanenitrile] showed an EC50 of 50.1 µM.

In the case of `Cc1nc(NCCCn2ccnc2)c2oc3ccccc3c2n1` [MLS000082652], the EC50 is greater than 300 µM.

Regarding `CSc1nc(NCc2ccccc2)c2c3c(sc2n1)CN(C)CC3`, the response was half-maximal at 23.3 µM (EC50).

Molecule `CCn1nc(NC(=O)c2cccs2)c2cc3ccccc3nc21` [MLS000674383] came in with a concentration for a half-maximal effect (EC50) greater than 300 µM.

Take `CC1(C)CC(CCNC(=O)CCl)(c2ccccc2)CCO1` (stereo not drawn) [MLS000779552]: the EC50 was greater than 300 µM.

On to `O=C(CS(=O)(=O)c1ccccc1)c1cc2ccccc2oc1=O` [3-[2-(phenylsulfonyl)ethanoyl]chromen-2-one], for which the EC50 was greater than 300 µM.

As for `O=C(O)c1ccc(-c2ccc(CN=Nc3ccc([N+](=O)[O-])cc3)o2)cc1`, the EC50 is greater than 300 µM.

For the molecule `Fc1ccc(CSc2ccc3nnc(-c4cccnc4)n3n2)cc1` [MLS000624295], the EC50 was greater than 300 µM.

In turn, `O=C(Nc1ccc([N+](=O)[O-])cn1)C1CC1` [SMR000227137] gave a half-maximal effective concentration (EC50) of 23.1 µM.

With `Cc1ccc(-c2nn(-c3ccccc3)cc2C=C2C(=O)CC(C)(C)CC2=O)cc1` [5,5-dimethyl-2-[[3-(4-methylphenyl)-1-phenylpyrazol-4-yl]methylidene]cyclohexane-1,3-dione], the EC50 is greater than 300 µM.

Molecule `CCCCc1cc(=O)oc2cc(OS(C)(=O)=O)ccc12` [(4-butyl-2-oxidanylidene-chromen-7-yl) methanesulfonate] had an EC50 greater than 300 µM.

Take `Cc1cc(Br)ccc1NC(=O)CN1C(=O)CCC1=O`: the EC50 was greater than 300 µM.

Turning to `CN(Cc1ccccc1)Cc1nc2c([nH]1)c(=O)n(C)c(=O)n2C` [1,3-dimethyl-8-[[methyl-(phenylmethyl)amino]methyl]-7H-purine-2,6-dione], the EC50 is greater than 300 µM.

The molecule `NS(=O)(=O)c1cccc(NC(=O)COC(=O)/C(=C/c2cccs2)c2cccs2)c1` [SMR000242820] showed an EC50 greater than 300 µM.

`COCCn1c(SCC(=O)NC(C)c2ccccc2)nc2ccccc21` (stereo not drawn) [SMR000590006] came in with an EC50 greater than 300 µM.

For `O=C(Nc1ccccc1)C(=O)Nc1ccccn1` [N-Phenyl-N'-pyridin-2-yl-oxalamide], the EC50 is greater than 300 µM.

With `Clc1ccccc1Nc1nc(-c2ccncc2)nc2ccccc12` [MLS001163918], the EC50 was greater than 300 µM.

As for `CN1CCN(CCCNC(=O)Nc2ccc([N+](=O)[O-])cc2)CC1` [N-[3-(4-methylpiperazin-1-yl)propyl]-N'-(4-nitrophenyl)urea], the EC50 was greater than 300 µM.

For the molecule `COc1ccc2nc3c(cc2c1)c(NC(=O)C1CCCO1)nn3CC(C)C` (stereo not drawn) [N-[6-methoxy-1-(2-methylpropyl)-3-pyrazolo[3,4-b]quinolinyl]-2-oxolanecarboxamide], the EC50 worked out at 0.946 µM.

Molecule `O=C(Nc1ccc(O)c2c(=O)cc(-c3ccccc3Cl)oc12)c1ccc(Cl)c(Cl)c1` showed a concentration giving a half-maximal response (EC50) of 117 µM.

Molecule `CC(C)(C)NC1=NN=C(c2ccc(Cl)cc2)CS1` [N-tert-butyl-5-(4-chlorophenyl)-6H-1,3,4-thiadiazin-2-amine] yielded an EC50 greater than 300 µM.

Regarding `c1cncc(-c2nc(NCc3cccs3)c3ccccc3n2)c1`, the EC50 is greater than 300 µM.

Molecule `O=C1NCCCc2c1oc1ccc(O)cc21` [7-hydroxy-2,3,4,5-tetrahydro-[1]benzofuro[2,3-c]azepin-1-one] gave an EC50 of 2.07 µM.

As to `CC(C)(C)C(=O)c1sc(Nc2ccccc2)nc1N` [1-(4-amino-2-anilino-1,3-thiazol-5-yl)-2,2-dimethyl-1-propanone], the EC50 amounted to 1 µM.

Molecule `Cc1ccc(-c2nn(-c3ccccc3)cc2CNCc2ccccc2)cc1` [MLS000672046] gave a 50% effective concentration (EC50) greater than 300 µM.

As to `Cc1cc(C)n2nc(C(=O)OCC(=O)NC(=O)c3ccccc3)nc2n1` [SMR000716574], the EC50 is greater than 300 µM.

As for `COc1ccc(CNCCC(c2ccc(F)cc2)c2ccc(OC)cc2)cc1` (stereo not drawn) [3-(4-fluorophenyl)-3-(4-methoxyphenyl)-N-[(4-methoxyphenyl)methyl]propan-1-amine], the EC50 was greater than 300 µM.

In the case of `CCOCCOC(=O)c1ccc(-n2cnc(C)n2)nc1` [SMR000337218], the EC50 was greater than 300 µM.

As for `Cc1ccnc(NC(=O)CCC(=O)N(CC(=O)NCCc2ccccc2)Cc2cccs2)c1` [N-(4-methylpyridin-2-yl)-N'-[2-oxidanylidene-2-(2-phenylethylamino)ethyl]-N'-(thiophen-2-ylmethyl)butanediamide], a half-maximal response (EC50) required 21.3 µM. This lies in the double-digit micromolar range.

`O=NCc1ccc(OCc2ccccc2)c(Cl)c1` [3-chloro-4-phenylmethoxybenzaldehyde oxime]: the EC50 was greater than 300 µM.

The molecule `Cc1ccc2c(C)c(C(=O)Nc3nnc(C)s3)oc2c1` [3,6-dimethyl-N-(5-methyl-1,3,4-thiadiazol-2-yl)-1-benzofuran-2-carboxamide] yielded an EC50 greater than 300 µM.

Take `COc1cccc(-c2c(C(=O)NN=C(C)c3ccncc3)nnn2-c2nonc2N)c1` [1-(4-amino-1,2,5-oxadiazol-3-yl)-5-(3-methoxyphenyl)-N-(1-pyridin-4-ylethylideneamino)-4-triazolecarboxamide]: a half-maximal response (EC50) required 19 µM. That is a double-digit micromolar value.

`COC(=O)c1nnn(-c2nonc2N)c1CSCCO` [1-(4-amino-1,2,5-oxadiazol-3-yl)-5-[(2-hydroxyethylthio)methyl]-4-triazolecarboxylic acid methyl ester] came in with an EC50 of 6.22 µM. This EC50 is about 3.1-fold lower than that of the molecule before.

Molecule `c1ccc(Nc2nc(-c3ccncc3)nc3ccccc23)cc1` returned an EC50 of 22 µM.

In the case of `Cc1ccc(C)c(S(=O)(=O)N2CCN(C(C(=O)Nc3ccc(F)cc3)c3ccccc3)CC2)c1` (stereo not drawn) [2-[4-(2,5-dimethylphenyl)sulfonyl-1-piperazinyl]-N-(4-fluorophenyl)-2-phenylacetamide], the EC50 was greater than 300 µM.

`COc1ccc(-c2c(N)nnc3c2[nH]c2ccccc23)cc1OC`: the EC50 was greater than 300 µM.

`CC1(C)CC2CC(C)(CN2S(=O)(=O)c2ccc(C(=O)Nc3ccc(Cl)c(S(=O)(=O)N4CCOCC4)c3)cc2)C1` (stereo not drawn) [N-[4-chloro-3-(4-morpholinylsulfonyl)phenyl]-4-[(3,3,5-trimethyl-7-azabicyclo[3.2.1]octan-7-yl)sulfonyl]benzamide] yielded a concentration giving a half-maximal response (EC50) greater than 300 µM.

In turn, `CCOC(=O)c1cnc2ccc(C(=O)OC)cc2c1Nc1ccc(C(=O)O)cc1` [SMR000273135] came in with an EC50 greater than 300 µM.
